This note sets out measurements from patent US8404683B2, “Inhibitors of the interaction between MDM2 and P53” (Janssen Pharmaceutical N.V., priority 2004, dated 2013).

This assay has as its system U87MG cells. Briefly: Proliferation assay (MTT-based) on U87MG tumour cells. To be noted: Homo sapiens, U-87 MG, 96 h, 4 days of incubation, negative log value of the IC50-value, read-out: cell proliferation pIC50 (converted). How it is done: U87MG cells are human glioblastoma cells with wild type p53. In this cell line MDM2 tightly controls p53 expression.
Cellular activity of the compounds of formula (I) was determined on U87MG tumour cells using a colorimetric assay for cell toxicity or survival (see example C.2).
All compounds tested were dissolved in DMSO and further dilutions were made in culture medium. Final DMSO concentrations never exceeded 0.1% (v/v) in cell proliferation assays. Controls contained U87MG cells and DMSO without compound and blanks contained DMSO but no cells.
U87MG cells were seeded in 96-well cell culture plates at 3000 cells/well/100 μl. 24 hours later, medium was changed and compound and/or solvent were added to a final volume of 200 μl. Following 4 days of incubation, medium was replaced by 200 μl fresh medium and cell growth was assessed using a MTT-based assay. Therefore, 25 μl of the MTT solution (0.5% MTT research grade from Serva in phosphate-buffered saline) was added to each well and the cells were further incubated for 2 hours at 37° C. The medium was then carefully aspirated and the blue MTT-formazan product was dissolved by adding to each well 25 μl 0.1 M glycin and 100 μl DMSO. The plates were shaken for another 10 min on a micro plate shaker before reading absorbance at 540 nm by a Biorad micro plate reader.
Within an experiment, the results for each experimental condition are the mean of 3 replicate wells. For initial screening purposes, compounds were tested at a single fixed concentration of 10^−5 M. For active compounds, the experiments were repeated to establish full concentration-response curves. For each experiment, controls (containing no drug) and a blank incubation (containing no cells or drugs) were run in parallel. The blank value was subtracted from all control and sample values. For each sample, the mean value for cell growth (in absorbance units) was expressed as a percentage of the mean value for cell growth of the control. When appropriate, IC50-values (concentration of the drug, needed to reduce cell growth to 50% of the control) were computed using probit analysis for graded data (Finney, D. J., Probit Analyses, 2nd Ed. Chapter 10, Graded Responses, Cambridge University Press, Cambridge 1962). Herein the effects of test compounds are expressed as pIC50 (the negative log value of the IC50-value) (see table F-2).

Bounds are passed on as bounds.

`c1cncc(Nc2ccc(NCc3c[nH]c4ccccc34)cc2)c1` [Compound 78]: the IC50 was 10000 nM.

As for `COC(=O)c1cc(Nc2ccc(NCCc3c[nH]c4cc(OC)ccc34)cc2)ccn1` [Compound 178], the IC50 was 1580 nM.

Consider `c1ccc2c(CNCc3ccc(Nc4ccncc4)cc3)c[nH]c2c1` [Compound 79], for which the IC50 is 2510 nM.

Consider `O=C(NCCNCc1cc(Nc2ccc(NCCc3c[nH]c4ccccc34)cc2)ccn1)OCc1ccccc1` [Compound 92], for which the IC50 was 3160 nM.

Consider `Cc1cc(Nc2ccncc2)ccc1NCCc1c[nH]c2ccccc12` [Compound 47], for which the IC50 was 158 nM.

As for `c1ccc(-c2cc(Nc3ccc(NCCc4c[nH]c5ccccc45)cc3)ccn2)cc1` [Compound 39], the IC50 is 631 nM.

In the case of `CC1(CO)CCCN(C(=O)C(Cc2c[nH]c3ccccc23)Nc2ccc(Nc3ccncc3)cc2)C1` (centres unmarked) [Compound 219], the IC50 is 3980 nM.

For the molecule `c1ccc2c(CCCN(CCCc3c[nH]c4ccccc34)Cc3ccc(Nc4ccncc4)cc3)c[nH]c2c1` [Compound 73], the IC50 is 501 nM.

Regarding `Cc1cc(Nc2ccc(NCCc3c[nH]c4ccccc34)cc2)ccn1` [Compound 46], the IC50 is 251 nM.

For the molecule `OCc1cc(Nc2ccc(NCCc3c[nH]c4cc(F)ccc34)cc2)ccn1` [Compound 193], the IC50 is 1000 nM.

Consider `c1cncc(CNc2ccc(NCCc3c[nH]c4ccccc34)cc2)c1` [Compound 121], for which the IC50 is more than 10000 nM.

`COc1ccc2nc(C)cc(Nc3ccc(NCCc4c[nH]c5ccccc45)cc3)c2c1` [Compound 20]: the IC50 was 100 nM.

Consider `Clc1ccc2c(CCNc3ccc(Nc4ccncc4)cc3)c[nH]c2c1` [Compound 50], for which the IC50 was 100 nM.

As for `Clc1cc(Nc2ccncc2)ccc1NCCc1c[nH]c2ccccc12` [Compound 45], the IC50 was 1000 nM.

As to `O[C@@H]1CCc2c(Nc3ccc(NCCc4c[nH]c5ccccc45)cc3)ccnc21` [Compound 195], the IC50 is 79.4 nM.

With `CCC(O)(CC)c1cc(Nc2ccc(NCCc3c[nH]c4ccccc34)cc2)ccn1` [Compound 128], the IC50 was 3160 nM.

Consider `COC(=O)CCOCc1cc(Nc2ccc(NCCc3c[nH]c4ccccc34)cc2)ccn1` [Compound 172], for which the IC50 is more than 10000 nM.

With `CCOc1cc(Nc2ccncc2)ccc1NCCc1c[nH]c2cc(OC)ccc12` [Compound 177], the IC50 is 50.1 nM.

Consider `COCC1(O)CCN(C(=O)C(Cc2c[nH]c3ccccc23)Nc2ccc(Nc3ccncc3)cc2)CC1` (centres unmarked) [Compound 222], for which the IC50 is 3980 nM.

In the case of `Cc1ccc2[nH]cc(CCNc3ccc(Nc4ccnc(CO)c4)cc3)c2c1` [Compound 189], the IC50 was 3160 nM.

For the molecule `O=c1cc(Nc2ccc(NCCc3c[nH]c4ccccc34)cc2)cc[nH]1` [Compound 173], the IC50 is more than 10000 nM.

As to `Cc1ccc2c(CCNc3ccc(Nc4ccncc4)cc3)c[nH]c2c1` [Compound 183], the IC50 is 501 nM.

On to `c1ccc(CCCNCc2cc(Nc3ccc(NCCc4c[nH]c5ccccc45)cc3)ccn2)cc1` [Compound 164], for which the IC50 is 2510 nM.

Regarding `COCC(O)C1CCN(C(=O)C(Cc2c[nH]c3ccccc23)Nc2ccc(Nc3ccncc3)cc2)CC1` (centres unmarked) [Compound 223], the IC50 was 794 nM.

On to `O=C(c1cc(Nc2ccc(NCCc3c[nH]c4ccccc34)cc2)ccn1)C1CC1` [Compound 204], for which the IC50 is 7940 nM.

For the molecule `O=C(CCc1c[nH]c2ccccc12)Nc1cccc(Nc2ccncc2)c1` [Compound 82], the IC50 is more than 10000 nM.

Turning to `O=C(OCc1ccccc1)N1CCN(Cc2cc(Nc3ccc(NCCc4c[nH]c5ccccc45)cc3)ccn2)CC1` [Compound 90], the IC50 was 2510 nM.

For the molecule `CCOc1cc(Nc2ccncc2)ccc1NCCc1c[nH]c2ccccc12` [Compound 2], the IC50 is 63.1 nM.

With `Fc1ccc2c(CCNc3ccc(Nc4ccncc4)cc3)c[nH]c2c1` [Compound 184], the IC50 is 1000 nM.

In the case of `CCOc1cc(Nc2ccnc3ccccc23)ccc1NCCc1c[nH]c2ccccc12` [Compound 35], the IC50 is 39.8 nM.

Take `CC(NCCc1ccccc1)c1cc(Nc2ccc(NCCc3c[nH]c4ccccc34)cc2)ccn1` (centres unmarked) [Compound 145]: the IC50 was 2510 nM.

Consider `OCCOCc1cc(Nc2ccc(NCCc3c[nH]c4ccccc34)cc2)ccn1` [Compound 99], for which the IC50 was 2510 nM.

Take `COC(=O)COCc1cc(Nc2ccc(NCCc3c[nH]c4ccccc34)cc2)ccn1` [Compound 98]: the IC50 is 3980 nM.

As to `CC(C)(C)OC(=O)N(CCc1cn(C(=O)OC(C)(C)C)c2ccccc12)c1ccc(N(c2ccncc2)c2ccncc2)cc1` [Compound 227], the IC50 is 7940 nM.

For the molecule `O=C(OCc1ccccc1)C(Cc1c[nH]c2ccccc12)Nc1ccc(Nc2ccncc2)cc1` (centres unmarked) [Compound 67], the IC50 is 1260 nM.

With `COc1ccc2c(CCNc3ccc(Nc4ccnc(CO)c4)cc3OC)c[nH]c2c1` [Compound 181], the IC50 is 251 nM.

As for `O=C(O)c1cc(Nc2ccc(NCCc3c[nH]c4ccccc34)cc2)ccn1` [Compound 58], the IC50 is more than 10000 nM.

In the case of `O=C(O)Cc1cc(Nc2ccc(NCCc3c[nH]c4ccccc34)cc2)ccn1` [Compound 70], the IC50 was 251 nM.

Take `CN1CCN(Cc2cc(Nc3ccc(NCCc4c[nH]c5ccccc45)cc3)ccn2)CC1` [Compound 160]: the IC50 is 398 nM.

`Cc1cnccc1Cc1cnccc1Nc1ccc(NCCc2c[nH]c3ccccc23)cc1` [Compound 125]: the IC50 was 3980 nM.

`Oc1cccc2c(Nc3ccc(NCCc4c[nH]c5ccccc45)cc3)ccnc12` [Compound 27]: the IC50 was 79.4 nM.

Turning to `Cc1cccc2c(Nc3ccc(NCCc4c[nH]c5ccccc45)cc3)ccnc12` [Compound 22], the IC50 is 20 nM.

For `CN(c1ccncc1)c1ccc(NCCc2c[nH]c3ccccc23)cc1` [Compound 83], the IC50 was 3160 nM.

As to `CNC(C)c1cc(Nc2ccc(NCCc3c[nH]c4ccccc34)cc2)ccn1` (centres unmarked) [Compound 142], the IC50 is 3160 nM.

For the molecule `CC(=O)OCc1cc(Nc2ccc(NCCc3c[nH]c4ccccc34)cc2)ccn1` [Compound 151], the IC50 was more than 10000 nM.

For the molecule `CC(O)c1cc(Nc2ccc(NCCc3c[nH]c4ccccc34)cc2)ccn1` (centres unmarked) [Compound 104], the IC50 was 3160 nM.

In the case of `O=C(C(Cc1c[nH]c2ccccc12)Nc1ccc(Nc2ccncc2)cc1)N(CCCCO)Cc1ccccc1` (centres unmarked) [Compound 207], the IC50 is 794 nM.

Turning to `c1cnc2[nH]cc(CCNc3ccc(Nc4ccncc4)cc3)c2c1` [Compound 190], the IC50 was 3980 nM.

For `Clc1ccc2c(CCNc3ccc(Nc4ccnc5ccccc45)cc3)c[nH]c2c1` [Compound 26], the IC50 was 100 nM.

For `CCNC(C)c1cc(Nc2ccc(NCCc3c[nH]c4ccccc34)cc2)ccn1` (centres unmarked) [Compound 143], the IC50 is 3160 nM.

In the case of `CCOc1cc(Nc2ccnc(C(C)(C)O)c2)ccc1NCCc1c[nH]c2cc(OC)ccc12` [Compound 139], the IC50 is 2000 nM.

For `O=C(C(Cc1c[nH]c2ccccc12)Nc1ccc(Nc2ccncc2)cc1)N1CCC(CO)C1` (centres unmarked) [Compound 209], the IC50 was more than 10000 nM.

For `OC1CCc2c(Nc3ccc(NCCc4c[nH]c5ccccc45)cc3)ccnc21` (centres unmarked) [Compound 110], the IC50 was 10 nM.

With `OCCCCNCc1cc(Nc2ccc(NCCc3c[nH]c4ccccc34)cc2)ccn1` [Compound 165], the IC50 was 5010 nM.

Take `OCCCNCc1cc(Nc2ccc(NCCc3c[nH]c4ccccc34)cc2)ccn1` [Compound 156]: the IC50 was 3160 nM.

As to `c1ccc2c(CCNc3ccc(Nc4ccnc(CN5CCNCC5)c4)cc3)c[nH]c2c1` [Compound 91], the IC50 was 2510 nM.

With `CN(C)CCN(Cc1ccccc1)C(=O)C(Cc1c[nH]c2ccccc12)Nc1ccc(Nc2ccncc2)cc1` (centres unmarked) [Compound 211], the IC50 was 63.1 nM.

For the molecule `c1ccc(CNCc2cc(Nc3ccc(NCCc4c[nH]c5ccccc45)cc3)ccn2)cc1` [Compound 168], the IC50 was 2000 nM.

For `Clc1cccc2[nH]cc(CCNc3ccc(Nc4ccncc4)cc3)c12` [Compound 186], the IC50 is 1000 nM.

With `N#CC=Cc1ccc2c(CCNc3ccc(Nc4ccncc4)cc3)c[nH]c2c1` [Compound 194], the IC50 is 6310 nM.

`CC(NCCCc1ccccc1)c1cc(Nc2ccc(NCCc3c[nH]c4ccccc34)cc2)ccn1` (centres unmarked) [Compound 148]: the IC50 was 3160 nM.

Turning to `c1ccc2c(CCNc3ccc(Nc4ccnc(CNCCN5CCNCC5)c4)cc3)c[nH]c2c1` [Compound 95], the IC50 is 7940 nM.

Consider `OC(c1ccccc1)c1cc(Nc2ccc(NCCc3c[nH]c4ccccc34)cc2)ccn1` (centres unmarked) [Compound 57], for which the IC50 is 794 nM.

Consider `COc1ccc2[nH]cc(CCNc3ccc(Nc4ccncc4)cc3)c2c1` [Compound 62], for which the IC50 was 2510 nM.

As to `OCc1cnccc1Nc1ccc(NCCc2c[nH]c3ccccc23)cc1` [Compound 123], the IC50 is 5010 nM.
